Laboratory results: patent US20250170104A1, “INHIBITORS OF PSEUDOMONAS AERUGINOSA VIRULENCE FACTOR Lasß” (priority 2022, published 2025)

Test: in vitro
Type: in vitro ADME
Settings: mouse, s9
Method: For the evaluation of combined phase I and phase II metabolic stability, the compound (1 μM) was incubated with 1 mg/mL pooled liver S9 fraction (Xenotech), 2 mM NADPH, 1 mM UDPGA, 10 mM MgCl2, 5 mM GSH and 0.1 mM PAPS at 37° C. for 0, 5, 15, 30 and 60 min. The metabolic stability of Testosterone (1 μM), verapamil (1 μM) and ketoconazol (1 μM) were determined in parallel to confirm the enzymatic activity of the S9 fraction. The incubation was stopped by precipitation of S9 enzymes with 2 volumes of cold acetonitrile containing internal standard (150 nM Diphenhydramine). Samples were stored on ice for 10 min and precipitated protein was removed by centrifugation (15 min, 4° C., 4,000 rpm). The remaining test compound at different time points was analyzed by LC-MS/MS (TSQ Quantum Access MAX, Thermo Fisher, Dreieich, Germany) and used to determine half-life (t½).

Question: For CC(C)CC(C(=O)NO)C(=O)Nc1ccc(Cn2cc(CNS(=O)(=O)CC(C)C)nn2)cc1 (stereo not shown) [Compound 169, 2-(Hydroxycarbamoyl)-N-[4-[[4-[(isobutylsulfonylamino)methyl]triazol-1-yl]methyl]phenyl]-4-methyl-pentanamide], which half-life at 1 μM is on record?
Answer: > 2 h
